# Laboratory results taken from PubChem BioAssay (NCI).
# “And” between values parts separate entries of the source, which are not always exact repeats. Equal entries are not always repeated.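 Step 1: Grow cells in 96-well plates. Step 2: Expose to compound for 48 hours at 5 concentrations. Step 3: Interpolate endpoints linearly; if unreached, use highest concentration. GI50 is the concentration that inhibits growth by half. TGI marks complete inhibition of growth.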
# Test system: MDA-MB-468 breast
# Assay: growth of human tumour cells (NCI), 48 h
SMILES,GI50,TGI
COc1cc(OC)cc(-c2n/c(=C\c3c(O)[nH]c4ccc(Cl)cc34)cc3c2=Nc2ccccc2-3)c1,17900 nM,45.6 µM
Cc1ccc(Sc2oc(-c3ccc(C)cc3)nc2[P+](c2ccccc2)(c2ccccc2)c2ccccc2)cc1,227 nM,0.705 µM
COc1ccc2c(c1)/C(=C\c1c[nH]c3ccc(OC)cc13)C(=O)N2,1780 nM,5.66 µM
Cc1c2ccncc2c(C)c2c1c1cc(CO)ccc1n2C,105 nM,0.327 µM
Cc1cc(NC(=O)c2cnc(N3CCN(CCOCCOCCOCCOCCC(=O)N[C@H](C(=O)N4C[C@H](O)C[C@H]4C(=O)N[C@@H](C)c4ccc(-c5scnc5C)cc4)C(C)(C)C)CC3)cn2)c2ncccc2c1,1670 nM,3.39 µM
COC1=CC(=O)c2c(O)c3c(c(O)c2C1=O)C[C@](C)(O)C[C@@H]3O,2160 nM,7.13 µM
COc1cc(C2CC(=O)Nc3c2cc(Br)c2ccccc32)cc(Br)c1OC (stereo unspecified),529 nM,2.54 µM
O=C1CCC(N2C(=O)c3cccc(NCCCC4CCN(CCNC(=O)c5cc6c(o5)C(=O)c5ccccc5C6=O)CC4)c3C2=O)C(=O)N1 (stereo unspecified),265 nM,1.94 µM
NNc1c2ccccc2nc2ccccc12,470 nM,13 µM
CCN(CC)CCCC(C)Nc1c(-c2ccccc2)cnc2cc(Cl)ccc12 (stereo unspecified),2630 nM,7.95 µM
CN(c1ccc(C#N)c(Cl)c1)C1CCC(NC(=O)c2ccc(N3CCN(C4CN(c5ccc6c(c5)C(=O)N(C5CCC(=O)NC5=O)C6=O)C4)CC3)cc2)CC1 (stereo unspecified),13700 nM,60 µM
Cn1c2c(c3ccccc31)CCN1C(=O)C3SC21C1C(=O)N(c2ccccc2)C(=O)C31 (stereo unspecified),51600 nM,> 100 µM
Cc1oc2c(c1C(=O)N1CC[C@@H](N)C1)C(=O)c1c(c(O)c3ccccc3c1O)C2=O,2520 nM,11.9 µM
Nc1ncccc1-c1nc2ccc(-c3ccccc3)nc2n1-c1ccc(C2(N)CCC2)cc1,117 nM,1.99 µM
Brc1cccc(-c2cc(-c3ccc4nccnc4c3)[nH]n2)c1,900 nM,–
O=C1CSC(c2ccccc2O)N1c1nnc(Cn2ccnc2)o1 (stereo unspecified),3110 nM,13.2 µM

SMILES,GI50,TGI
OCc1ccc(N2CCCC2)cc1Cl,75.7 nM,0.324 µM
CCN(CC)C(=S)SSC(=S)N(CC)CC,15800 nM and 16800 nM,43.7 µM and 44.8 µM
CCN(C(=O)CN1CCN(c2cc3c(cc2F)c(=O)c(C(=O)O)cn3CC)CC1)c1nc(-c2ccccc2)cs1,307 nM,0.896 µM
COc1cccc(C2C(C#N)=C(N)Oc3c2ccc2ccccc32)c1 (stereo unspecified),19.4 nM,7.04 µM
Nc1n[nH]c2ccc([C@@H]3Nc4cc5[nH]ncc5cc4[C@H]4C5CCC(C5)[C@@H]34)cc12 (stereo partly specified),211 nM,0.873 µM
CC/C=C\C/C=C/C=C1/C(=O)C=C[C@@H]1C/C=C\CCCC(=O)OC,1790 nM,3.83 µM
C=C1CC[C@@H]2[C@](C)(COC(C)=O)[C@H](OC(C)=O)CC[C@@]2(C)[C@@H]1CC(Nc1ccc(S(=O)(=O)Nc2nccs2)cc1)C1=CCOC1=O (stereo partly specified),1830 nM,4.43 µM
O=C(Nc1cnc(C(F)(F)F)cn1)c1cc(Cl)ccc1O,282 nM,0.819 µM
N/C(=N\c1nc2ccccc2s1)NC(=NC1CCCCC1)NC1CCCCC1,1700 nM,3.41 µM
NS(=O)(=O)c1cccc(-c2ccc3c(NC(=O)C4CC4)n[nH]c3c2)c1,5250 nM,> 25 µM
COc1ccc(C2C(C#N)=C(/N=C/c3ccc(Cl)cc3)Oc3c2sc2c(C)cccc32)cc1 (stereo unspecified),1090 nM,9.34 µM
CC(=O)O.CC(=O)O.CC(=O)O.CC(=O)O.[Rh].[Rh],15000 nM,58.1 µM
COc1ccc(Oc2ccccc2NC(=O)CNC(=O)c2cccc3ccccc23)cc1,454 nM,> 25 µM
Cc1cccc2c(Nc3ccc(NS(C)(=O)=O)cc3)c3ccc([N+](=O)[O-])cc3nc12,202 nM,0.882 µM
CCN(CC)CCC(CNc1c(C)cnc2cc(Cl)ccc12)c1ccc(Cl)cc1 (stereo unspecified),2050 nM,5.45 µM
